{"source": "patent US20080146650A1", "about": "“PHARMACEUTICAL COMPOSITION COMPRISING A-LIPOIC ACID FOR INFLAMMATORY DISEASES” (priority 2005, published 2008)", "key": {"[1]": {"tested_on": "adhesion of monocytes to HUVECs", "assay": "Monocyte adhesion assay on HUVECs", "format": "cell-based, human", "conditions": "for increase in the adhesion of monocytes compared to treatment with control buffer: stimulation of HUVECs for 6 hours, TNF-α 10 ng/ml or IL-1β 15 ng/ml", "description": "Human peripheral blood monocytes were isolated from fresh blood of healthy volunteers by Ficoll-Paque gradient centrifugation. The study protocol and informed consent forms were approved by the Chonbuk. National University Hospital Review Board. Monocytes were isolated by negative selection using magnetic beads (Miltenyi Biotec, Bergisch Gladbach, Germany) (Ancuta P et al., J Exp Med 2003 197: 1701-1707). The purity of the monocyte fraction was 93-95% as determined by staining with anti-CD14, anti-CD33, anti-CD16b, and anti-CD56 mAbs and FACScan analysis (Becton Dickinson, Franklin Lakes, N.J.). Monocyte-endothelial adhesion was determined by fluorescent labeling of monocytes by a method described previously (Kim W. et al., Arterioscler Thromb Vase Biol 2003 23: 1377-1383). A number of monocytes adhered to HUVECs was expressed as percent calculated by the formula: % signal/total signal)."}, "serum TNF-α": {"tested_on": "serum TNF-α", "assay": "Serum TNF-α by ELISA after intravenous LPS in rats", "format": "in vivo, rat", "conditions": "for serum level of TNF-α: rats, LPS 10 mg/kg intravenous by tail vein", "description": "(§1) Blood samples (0.5 ml) were taken from rats at 0, 1, 2, 3, and 4 hours after the administration of LPS (10 mg/kg) or vehicle. Serum concentrations of TNF-α and IL-1β were determined by using ELISA kits (Endogen, Woburn, Mass.).\n(§2) Serum concentrations of TNF-α and IL-1β were determined by using Enzyme-Linked Immunosorbent Assay (ELISA) Kits (Endogen, Woburn, Mass.). […] Thus, we used TNF-α- and IL-1β in this experiment.\n(§3) Inbred male Sprague-Dawley rats (150-200 g) were obtained from Orient (Charles River Korea, Seoul, Korea) and were maintained on standard laboratory chow and water ad libitum. All animal studies were reviewed and approved by the Institutional Animal Care and Use Committee of Chonbuk National University Medical School. The rats (180-220 g) were divided into 3 groups; control (n=6), LPS (10 mg/kg) (n=6), and LPS (10 mg/kg) plus LA (10 mg/kg/day) (n=6). Control buffer and LPS were injected intravenously through the tail vein. LA was injected intraperitoneally once per day for three days prior to LPS administration. At 12 hours postinjection of vehicle or LPS, rats were anesthetized with ketamine (100 mg/kg) and xylazine (10 mg/kg), and subsequently sacrificed by cervical dislocation. Heart and jejunum were harvested for RNase protection assay, Western blot, and immunohistochemistry."}, "serum IL-1β": {"tested_on": "serum IL-1β", "assay": "Serum IL-1β by ELISA after intravenous LPS in rats", "format": "in vivo, rat", "conditions": "for serum level of IL-1β: rats, LPS 10 mg/kg intravenous by tail vein", "description": "as §1, §2, §3"}, "fractalkine mRNA": {"tested_on": "fractalkine mRNA", "assay": "RNase protection assay (RPA) for fractalkine mRNA in HUVECs", "format": "cell-based, human", "description": "(§4) Recombinant human TNF-α was purchased from R&D Systems (Minneapolis, Minn.). Anti-fractalkine antibody was purchased from Torrey Pines BioLabs (Houston, Tex.). LPS was purchased from Sigma-Aldrich (St. Louis, Mo.). LA (Thioctacid 600®) was obtained from VIATRIS GmbH & Co. KG (Frankfurt, Germany). Calcein-AM was purchased from Molecular Probe (Eugene, Oreg.). Media, sera, and other biochemical reagents were purchased from Sigma-Aldrich, unless otherwise specified. HUVECs were prepared from human umbilical cords by collagenase digestion as previously described (Kim W et al., FASEB J. 2003 17: 1337-19395. Homogeneity of endothelial cells in cultures was confirmed by the presence of factor VIII using immunofluorescence method. HUVECs were maintained in M-199 medium supplemented with 20% (vol/vol) fetal bovine serum at 37° C. in a 5% CO2atmosphere. The primary cultured cells used in this study were between 2 and 4 passages.\nA part of cDNA of human fractalkine (nucleotides 482-893, GenBank accession NM002996) was amplified by PCR and subcloned into pBluescript II KS+ (Stratagene, La Jolla, Calif.). After linearizing with EcoRI, ^32P-labeled antisense RNA probes were synthesized by in vitrotranscription using T7 polymerase (Ambion Maxiscript kit; Ambion, Austin, Tex.) and gel purified. RPA was performed on total RNAs using the Ambion RPA kit (Ambion, Austin, Tex.). An antisense RNA probe of human cyclophilin (nucleotides 135-239, GenBank accession X52856) was used as an internal control for RNA quantification."}, "fractalkine protein": {"tested_on": "fractalkine protein", "assay": "Western blot analysis of fractalkine protein in HUVECs", "format": "cell-based, human", "description": "as §4\nWestern blot analyses were performed as previously described (Aim S Y et al., Am J Pathol 2004 164: 1663-1672). Samples were mixed with sample buffer, boiled for 10 minutes, separated by SDS-PAGE electrotransfered to nitrocellulose membranes. The nitrocellulose membranes were blocked by incubation in blocking buffer, incubated with anti-fractalkine monoclonal antibody, washed, and incubated with horseradish peroxidase-conjugated secondary antibody. […]"}, "NF-κB (p65/p50)": {"tested_on": "NF-κB (p65/p50)", "assay": "EMSA for NF-κB binding activity in nuclear extracts of HUVECs", "format": "cell-based, human", "description": "EMSA for NF-κB proteins was performed as previously described (Kim I et al., J Biol Chem 2001 276: 7614-7620). Briefly, the cells were lysed in a hypotonic buffer (10 mmol/L HEPES, pH 7.9, 1.5 mmol/L MgCl2, 10 mmol/L KCl, 0.5 mmol/L DTT, 0.5 mmol/L PMSF) containing 0.6% NP-40 and centrifuged at 4000 rpm for 15 min. The pellet was lysed in […] of a high salt buffer (20 mmol/L HEPES, pH 7.9, 420 mmol/L NaCl, 25% glycerol, 1.5 mmol/L MgCl2, 0.2 mmol/L EDTA, 0.5 mmol/L PMSF, 0.5 mmol/L DTT) for 20 min on ice. Seventy five microliter of storage buffer (20 mmol/L HEPES, pH7.9, 100 mmol/L NaCl, 20% glycerol, 0.2 mmol/L EDTA, 0.5 mmol/L PMSF, 0.5 mmol/L DTT) was added, agitated for 10 sec by vortexing, and centrifused at 14,000 rpm for 20 min. Nuclear extracts ([…]) were incubated with approximately 20,000 cpm of ^32P-labeled NF-κB binding site oligomer 5′-[…]-3′ (SEQ ID NO: 1) (Santa Cruz Biotechnology, Santa Cruz, Calif.) for […] at 20 C. EMSA for SP-1 protein was performed with biotin-labeled SP-1 binding site oligomer 5′-[…] (SEQ ID NO: 2) and signals were detected by chemiluminescent imaging according to the manufacturer's protocol (EMSA Gel-Shift. Kit; Panomics, Redwood City, Calif.).\nWe previously reported that NF-κB is involved in TNF-α induced fractalkine expression in HUVECs (Ahn S Y et al., Am J Pathol 2004 164: 1663-1672). […]"}, "[2]": {"tested_on": "fractalkine expression in rat heart", "assay": "Immunohistochemical analysis of fractalkine expression in heart of LPS-induced endotoxemia rats", "format": "in vivo", "conditions": "LA 10 mg/kg/day for 3 days before LPS 10 mg/kg i.v., 12 hours", "description": "as §3\n(§5) After sacrifice, the hearts and jejunums were quickly excised, rinsed with PBS, and frozen in OCT in methyl-butane on dry ice. Frozen tissue blocks were sectioned at […], and 8-12 sections of heart or jejunum from each rat were incubated with anti-fractalkine antibody at 4 C overnight. […] Fractalkine expression was semi-quantitated by grading the degree of immunostaining (very strong=5, strong=4, moderate=3, weak=2, none=1). […]"}, "[3]": {"tested_on": "fractalkine expression in rat small intestine", "assay": "Immunohistochemical analysis of fractalkine expression in small intestine of LPS-induced endotoxemia rats", "format": "in vivo", "conditions": "LA pretreatment before LPS, 12 hours, FIGS. 7a, 7b", "description": "as §3, §5"}, "SP-1": {"tested_on": "SP-1", "assay": "EMSA for SP-1 binding activity in nuclear extracts of HUVECs", "conditions": "FIG. 5b", "quoted_text": "Briefly, the cells were lysed in a hypotonic buffer (10 mmol/L HEPES, pH 7.9, 1.5 mmol/L MgCl2, 10 mmol/L KCl, 0.5 mmol/L DTT, 0.5 mmol/L PMSF) containing 0.6% NP-40 and centrifuged at 4000 rpm for 15 min. […] Seventy five microliter of storage buffer (20 mmol/L HEPES, pH7.9, 100 mmol/L NaCl, 20% glycerol, 0.2 mmol/L EDTA, 0.5 mmol/L PMSF, 0.5 mmol/L DTT) was added, agitated for 10 sec by vortexing, and centrifused at 14,000 rpm for 20 min. […] EMSA for SP-1 protein was performed with biotin-labeled SP-1 binding site oligomer 5′-[sequence]"}}, "data": [{"compound": "TNF-α", "values": [{"measurement": "increase in the adhesion of monocytes compared to treatment with control buffer", "setting": "[1]", "value": 5, "unit": "fold"}]}, {"compound": "O=C(O)CCCCC1CCSS1", "note": "(stereo not shown) [LA, 1,2-dithiolane-3-pentanoic acid]", "values": [{"measurement": "effect on LPS-increased serum TNF-α", "setting": "serum TNF-α; rats pretreated with LA, then LPS, FIG. 1a", "value": "significantly inhibited"}, {"measurement": "effect on LPS-increased serum IL-1β", "setting": "serum IL-1β; rats pretreated with LA, then LPS, FIG. 1b", "value": "significantly inhibited"}, {"measurement": "suppression of IL-1β-induced expression of fractalkine mRNA", "setting": "fractalkine mRNA; IL-1β 15 ng/ml, LA 4 mmol/L, FIG. 4b", "value": "70-80%"}, {"measurement": "effect on expression of fractalkine mRNA induced by TNF-α and IL-1β together", "setting": "fractalkine mRNA; TNF-α 10 ng/ml and IL-1β 15 ng/ml together, FIG. 4c", "value": "suppressed"}, {"measurement": "suppression of TNF-α-induced expression of fractalkine mRNA", "setting": "fractalkine mRNA; TNF-α 10 ng/ml, LA 4 mmol/L, FIG. 4a", "value": "70-80%"}, {"measurement": "effect on TNF-α- and/or IL-1β-induced expression of fractalkine protein", "setting": "fractalkine protein", "value": "decreased"}, {"measurement": "effect on basal NF-κB (p65/p50) binding activity", "setting": "NF-κB (p65/p50); LA alone", "value": "no effect"}, {"measurement": "effect on TNF-α- and/or IL-1β-induced NF-κB (p65/p50) binding activity", "setting": "NF-κB (p65/p50); TNF-α 10 ng/ml and/or IL-1β 15 ng/ml, LA 4 mmol/L, FIG. 5a", "value": "suppressed"}, {"measurement": "decrease in monocyte adhesion to IL-1β-stimulated HUVECs", "setting": "[1]; IL-1β 15 ng/ml, FIG. 6a, 6b", "value": 76, "unit": "%"}, {"measurement": "decrease in monocyte adhesion to TNF-α-stimulated HUVECs", "setting": "[1]; TNF-α 10 ng/ml, FIG. 6a, 6b", "value": 63, "unit": "%"}, {"measurement": "effect on HUVEC adhesiveness for monocytes, substance alone", "setting": "[1]; unstimulated HUVECs", "value": "no effects"}, {"measurement": "effect on LPS-induced fractalkine expression in arterial endothelial cells, endocardium, and endocardial surface of cardiac valves", "setting": "[2]", "value": "dramatically suppressed"}, {"measurement": "effect on LPS-induced fractalkine expression in arterial endothelial cells and villous endothelium", "setting": "[3]", "value": "dramatically suppressed"}, {"measurement": "effect on TNF-α- and/or IL-1β-induced SP-1 binding activity", "setting": "SP-1", "value": "decreased"}, {"measurement": "effect on basal SP-1 binding activity", "setting": "SP-1; LA alone", "value": "no effect"}]}, {"compound": "IL-1β: proinflammatory cytokine used to stimulate HUVECs", "values": [{"measurement": "increase in the adhesion of monocytes compared to treatment with control buffer", "setting": "[1]", "value": 4, "unit": "fold"}]}, {"compound": "lipopolysaccharide [LPS]", "values": [{"measurement": "serum level of TNF-α", "setting": "serum TNF-α; 3 hours after LPS", "value": "975 ± 121", "unit": "pg/mL"}, {"measurement": "serum level of TNF-α", "setting": "serum TNF-α; 4 hours after LPS", "value": 0, "unit": "pg/mL"}, {"measurement": "serum level of IL-1β", "setting": "serum IL-1β; 1 hour after LPS", "value": "104 ± 20", "unit": "pg/mL"}, {"measurement": "serum level of IL-1β", "setting": "serum IL-1β; 2 hours after LPS", "value": "232 ± 45", "unit": "pg/mL"}, {"measurement": "serum level of IL-1β", "setting": "serum IL-1β; 3 hours after LPS", "value": "212 ± 19", "unit": "pg/mL"}]}]}
